{"source": "paper PMC6949113", "about": "“Preclinical evaluation of AT-527, a novel guanosine nucleotide prodrug with potent, pan-genotypic activity against hepatitis C virus” (PLoS ONE, 2020)", "key": {"H1-HeLa cells": {"tested_on": "H1-HeLa cells", "experiment": "XTT cytotoxicity, H1-HeLa cells", "type": "cell-based", "settings": "HRV assay", "text": "(§1) Anti-Human Rhinovirus (HRV).\n(§2) Determination of antiviral activity and cytotoxicity."}, "CoV": {"tested_on": "CoV", "experiment": "Anti-coronavirus assay (XTT)", "type": "cell-based", "settings": "MRC5; CoV in MRC-5 cells", "text": "as §2"}, "AdV": {"tested_on": "AdV", "experiment": "Anti-adenovirus assay (XTT)", "type": "cell-based", "settings": "unidentified adenovirus; AdV in HeLa cells", "text": "as §2"}, "MRC-5 cells": {"tested_on": "MRC-5 cells", "experiment": "XTT cytotoxicity, MRC-5 cells", "type": "cell-based", "settings": "MRC-5, CoV assay", "text": "as §2"}, "HRV": {"tested_on": "HRV", "experiment": "Anti-human rhinovirus assay (XTT)", "type": "cell-based", "settings": "Human rhinovirus sp.; HRV in H1-HeLa cells", "text": "as §1, §2"}, "Vero cells": {"tested_on": "Vero cells", "experiment": "XTT cytotoxicity, Vero cells", "type": "cell-based, African green monkey", "settings": "Zika assay"}, "Zika": {"tested_on": "Zika", "experiment": "Anti-Zika virus assay (XTT)", "type": "cell-based", "settings": "Zika in Vero cells", "text": "Anti-Zika Virus (Zika). […] Monolayers were approximately 70% confluent for the assay. Zika virus strain MR766 was obtained from ATCC (VR-84) and a stock virus pool was produced in LLCMK2 cells.\nas §2"}, "HeLa cells": {"tested_on": "HeLa cells", "experiment": "XTT cytotoxicity, HeLa cells", "type": "cell-based", "settings": "AdV assay"}}}
{"smiles": "NC(=O)c1ncn([C@@H]2O[C@H](CO)[C@@H](O)[C@H]2O)n1", "note": "[Ribavirin]", "values": [{"measurement": "TC50", "setting": "H1-HeLa cells", "value": 40.6, "unit": "µM"}, {"measurement": "EC50", "setting": "CoV", "value": 3.85, "unit": "µM"}, {"measurement": "EC50", "setting": "AdV", "value": 0.76, "unit": "µM"}, {"measurement": "TC50", "setting": "MRC-5 cells", "value": ">100", "unit": "µM"}, {"measurement": "EC50", "setting": "HRV", "value": 17.1, "unit": "µM"}, {"measurement": "TC50", "setting": "Vero cells", "value": 38.8, "unit": "µM"}, {"measurement": "EC50", "setting": "Zika", "value": 5.65, "unit": "µM"}, {"measurement": "TC50", "setting": "HeLa cells", "value": 11.7, "unit": "µM"}]}
